Laboratory results taken from patent US20040122218A1, “Pyrrolopyridine potassium channel openers” (priority 2002, published 2004).

Assays:
Landrace pig bladders = experiment: In vitro functional model: field-stimulated bladder tissue strips; settings: concentration range of 10^−9 to 10^−5 M, cumulative
Experimental: In Vitro Functional Model
Compounds were evaluated for functional BK channel opening activity using tissue strips obtained from Landrace pig bladders. Landrace pig bladders were obtained from female Landrace pigs of 9-30 kg. Landrace pigs were euthanized with an intraperitoneal injection of pentobarbital solution, Somlethal®, J.A. Webster Inc., Sterling Mass. The entire bladder was removed and immediately placed into Krebs Ringer bicarbonate solution (composition, mM: NaCl, 120; NaHCO3, 20; dextrose, 11; KCl, 4.7; CaCl2, 2.5; MgSO4, 1.5; KH2PO4, 1.2; K2EDTA, 0.01, equilibrated with 5% CO2/95% O2 pH 7.4 at 37° C.). Propranolol (0.004 mM) was included in all of the assays to block β-adrenoceptors. The trigonal and dome portions were discarded. Strips 3-5 mm wide and 20 mm long were prepared from the remaining tissue cut in a circular fashion. The mucosal layer was removed. One end was fixed to a stationary glass rod and the other to a Grass FT03 transducer at a basal preload of 1.0 gram. Two parallel platinum electrodes were included in the stationary glass rod to provide field stimulation of 0.05 Hz, 0.5 milli-seconds at 20 volts. […] The maximal efficacy of each compound (expressed as % relative to P1075) is reported. […] Agonist potencies were also expressed as an index relative to P1075. The index was calculated by dividing the ED50 for P1075 by the ED50 for the test agonist in a given tissue. […]

melting point	Compound	effect on stimulated twitch (Landrace pig bladders)
207 to 209 °C	N#Cc1c(N2CCC[C@@H]2CO)[nH]c2cccnc12 [Example 9, (R)-2-(2-Hydroxymethyl-pyrrolidin-1-yl)-1H-pyrrolo [3,2-b]pyridine-3-carbonitrile]	–
207 to 209 °C	N#Cc1c(N2CCC[C@H]2CO)[nH]c2cccnc12 [Example 10, (S)-2-(2-Hydroxymethyl-pyrrolidin-1-yl)-1H-pyrrolo [3,2-b]pyridine-3-carbonitrile]	–
241 to 242 °C	N#Cc1c(N2CCCCC2)[nH]c2cccnc12 [Example 18, 2-Piperidin-1-yl-1H-pyrrolo[3,2-b]pyridine-3-carbonitrile]	–
–	CCC(C)(C)N=C(NC#N)Nc1cccnc1 [Example P1075]	completely eliminated the stimulated twitch
